Target: T1, alpha syn aggregates (Homo sapiens, UniProt P37840)
T1 construct: expressed in transfected cells; host or cells: NLF cells, Tet-on inducible expression
Assay: Assay for Methamphetamine Addiction: alpha syn aggregates in NLF cells with or without amphetamine
Format: cell-based
Conditions: FIG. 1
Excerpt: FIG. 1 illustrates the average number of a syn aggregates per cell.
NLF cells were transfected with alpha synuclein behind a Tet-on promoter and induced to express alpha syn, resulting in the appearance of alpha syn aggregates. […] Aggregates were counted in ten randomly chosen fields and highest 3 in all conditions were quantified.

SMILES | number of alpha syn aggregates (treatment with 0.5 mM amphetamine) | amphetamine mediated increase of alpha syn aggregates (0.5 mM amphetamine and 1 μM of compound) | number of alpha syn aggregates (treatment with 1 μM of compound)
CC(N)Cc1ccccc1 (stereo not drawn) [amphetamine, reference compound] | increased the number of aggregates |  | 
CN1CCN(c2ccc(-c3ccc(/C=C4\SC(=S)N(CCc5ccccc5)C4=O)o3)cc2)CC1 [Compound 13] |  | eliminated the amphetamine mediated increase of aggregates | reduced the number of aggregates

Reference: patent publication US20250017910A1, “2-Thioxothiazolidine-4-One Derivatives And Their Uses” (Prosetta Biosciences, Inc., priority 2023, published 2025)
